# Measurements from PubChem BioAssay AID1996.
# Settings: buffer; pH 7.4; 200.0 µM
row,SMILES,solubility kinetic [µg/mL]
1,NC(=O)c1oc2ccccc2c1NC(=O)C1COc2ccccc2O1 (stereo not given),< 0.4
2,O=C(COC(=O)/C=C/c1cccc([N+](=O)[O-])c1)NCc1ccco1,18.5
3,Cc1noc(C)c1C(=O)N1CCC(CO)(Cc2ccccc2)CC1,42
4,COc1c(S(=O)(=O)Nc2cccnc2)ccc(Cl)c1Cl,30.8
5,Cc1cc2nc(Cl)c(Cl)nc2cc1C,0.6
6,O=C(NCC(=O)N1CCOCC1)c1ccc(Cl)c(Cl)c1,> 47.6
7,O=C(NCc1ccco1)c1cc([N+](=O)[O-])ccc1Cl,28.3
8,Cc1cccc2sc(NC(=O)Cn3c(C)csc3=O)nc12,5.1
9,S=C(NCC1CCCO1)NC1CC1 (stereo not given),> 30
10,COc1ccc(CN2C(=O)c3ccccc3C2=O)cc1C(=O)O,> 46.7
11,O=C(NC(=S)NCCCN1CCOCC1)c1ccco1,> 44.6
12,Cc1cccc(NC(=O)C2CCCN(c3cnccn3)C2)c1 (stereo not given),27.2
13,CC(C)[C@H](NS(=O)(=O)c1ccccc1)C(=O)OCC(=O)Nc1cccc(S(N)(=O)=O)c1,61.6
14,COc1cccc2cc(C(=O)NC(C)c3ccccc3)c(=O)oc12 (stereo not given),< 0.7
15,COc1ccc(S(=O)(=O)N2CCOCC2)cc1NC(=O)COC(=O)CC1CC2CCC1C2 (stereo not given),11.3
16,O=C(CS(=O)(=O)c1ccccc1)Nc1nccs1,> 42.3
17,CCOC(=O)C(Cc1ccccc1)C(=O)NCc1cccnc1 (stereo not given),> 46.9
18,Cc1cc(C)nc(-n2ncc3c2CC(C)CC3=O)n1 (stereo not given),> 38.4
19,Nc1ccc(C(=O)NCCCSc2ccccc2)cc1[N+](=O)[O-],1.6
20,Cc1cccc(C(=O)N/N=C/c2ccoc2)c1,> 34.2

row,SMILES,solubility kinetic [µg/mL]
1,Nc1ccccc1C(=O)N1CCc2ccccc21,> 35.7
2,CC(C)CC(=O)Nc1ncc([N+](=O)[O-])s1,> 34.4
3,CC(=O)Nc1cccc(C(=O)N2CCN(S(=O)(=O)Cc3ccccc3)CC2)c1,> 60.2
4,Cl.c1ccc2c(CC3=NCCN3)cccc2c1,> 37
5,O=C(OCCN=C1NS(=O)(=O)c2ccccc21)c1cccc([N+](=O)[O-])c1,3
6,CCCCNC(=O)CCC(=O)N1CCN(C(c2ccccc2)c2ccccc2)CC1.Cl,> 66.6
7,CCOC(=O)c1c(C)[nH]c(C(=O)NCCN2CCOCC2)c1C,> 48.5
8,O=C(CN1CCN(Cc2ccccc2Cl)CC1)N/N=C/c1ccccn1,> 55.8
9,NS(=O)(=O)c1ccc(CNC(=O)c2cc(=O)c3ccccc3o2)cc1,1.7
10,O=C(CNC(=O)c1ccc(Cl)cc1)c1ccc(Cl)cc1,9
11,O=C(Nc1ccc(N2CCOCC2)c(F)c1)c1cccs1,17
12,CSc1ccccc1NC(=O)c1ccc([N+](=O)[O-])cc1,15.9
13,COc1ccc(Cl)cc1NC(=O)CN1CCc2ccccc2C1,< 0.4
14,N#Cc1c2ccc(OCC(N)=O)cc2n2ccccc12,1.95
15,CCCCOc1ccc(C(=O)Nc2ccc(CN3CCOCC3)cc2)cc1,1.1
16,Cc1cc([N+](=O)[O-])ccc1NC(=O)CCC(=O)N1CCCCC1,> 47.9
17,O=C(Cn1cc(C(=O)C2CC2)c2ccccc21)Nc1ccccc1Cl,< 0.4
18,CCOC(=O)c1cc2c(ccn2C)n1CC(=O)N(CC)CC,> 45.8
19,c1ccc(-c2csc(Nc3cccnc3)n2)cc1,2.2
20,CC(=O)Nc1nc2c(C)cc(NC(=O)C3CCCCC3)cc2s1,0.7

row,SMILES,solubility kinetic [µg/mL]
1,O=C(CNc1cc(S(=O)(=O)N2CCOCC2)ccc1N1CCOCC1)Nc1cccc(C(F)(F)F)c1,2.5
2,Nc1nnc(SCC(=O)N2CCCCC2)s1,> 38.8
3,O=C1NC(=Nc2ccccc2)CS1,> 28.8
4,CCCN1C(=O)c2ccc(C(=O)Nc3ccccc3C(=O)O)cc2C1=O,> 52.9
5,CCN1CCN(C(C)CCc2ccccc2)CC1 (stereo not given),30.6
6,CC(=O)Nc1ccccc1NC(=O)c1ccc(C)c(C)c1,> 42.4
7,O=C(COc1ccc(F)c(Cl)c1)N1CCCCCCC1,32.8
8,COP(=O)(NS(=O)(=O)c1ccccc1)OC,33.9
9,CCOC(=O)C1=C(N)Oc2cc(O)ccc2C1c1ccccc1 (stereo not given),< 0.7
10,O=C(Nc1nc2ccccc2[nH]1)c1cccc(F)c1,6.6
11,O=C(O)c1ccc2c(c1)C(=O)N(c1ccc(C(=O)OCC(=O)c3ccccc3)cc1)C2=O,45.4
12,O=C(NC1CCCc2ccccc21)c1ccccc1OC(F)F (stereo not given),15.5
13,O=C(/C=C/Nc1ccc(S(=O)(=O)Nc2ncccn2)cc1)c1ccc2ccccc2c1,2
14,COC(=O)c1ccc(S(=O)(=O)N2CCCCCC2)n1C,> 45.1
15,Cc1cc(Nc2ccc(C(=O)N3CCCCC3)cc2)c2cccc(C)c2n1,4.8
16,COc1ccc(CCNc2cc(C)nc(N)n2)cc1OC,> 43.3
17,CN(CC(=O)Nc1c(F)cccc1F)Cc1cccs1,> 44.5
18,Cc1cc(NC(=O)CCl)no1,> 26.2

# The remaining lines, values ahead:
row,solubility kinetic [µg/mL],SMILES
1,5.1,CC(C)c1ccc(/C=C/C(=O)NCc2ccc(S(N)(=O)=O)cc2)cc1
2,> 48.2,COc1ccc(NC(=O)COC(=O)c2ccc(F)cc2F)cc1
3,30.4,COc1ccc(CNC(=O)N2CCc3ccccc3C2)cc1Cl
4,33.7,C=CCn1c(NCc2ccc(OC)cc2)nc2ccccc21
5,39.9,CCC(C)[C@H](NC(=O)NCc1ccc(OC)c(OC)c1)C(=O)O (stereo not given in full)
6,> 40.8,Cc1ccc(NC(=O)CNC(=O)c2ccc(C)o2)cc1
7,> 45.5,COc1ccc(CNC(=O)C2CC(C)=CCC2C(=O)O)cc1 (stereo not given)
8,> 64.9,CCOC(=O)C1CCN(C(=O)COC(=O)CNC(=O)c2ccc(C(C)(C)C)cc2)CC1
9,> 50.5,CCOC(=O)CC1C(=O)NCCN1Cc1ccc(OC)c(OC)c1 (stereo not given)
10,48.6,CC(C)Oc1ccc(C(=O)NCCCNC(=O)c2ccccn2)cc1
11,1,COc1cccc(NC(=O)NCc2ccccc2Cl)c1
12,15.3,CCCC(=O)Nc1ccc(C(=O)COC(=O)C2CC2)cc1
13,< 0.4,COc1ccc(N2CCN(C(=O)c3cc4ccccc4o3)CC2)cc1
14,> 49.1,NS(=O)(=O)c1ccc(CCNC(=S)NC2CCCC2)cc1
15,4.4,Cc1ccc(CNC(=O)COC(=O)c2cc(C)oc2C)cc1
16,> 49.4,CC1(C)CC(NC(=O)c2ccc(Br)o2)CC(C)(C)N1
17,> 45.8,COc1ccc(CC(=O)OCC(=O)NC2CCCCC2)cc1
18,> 64.4,Cc1cc(C)c(C)c(S(=O)(=O)NCc2ccc(C(=O)N3CCN(C)CC3)cc2)c1C
19,7.5,COc1ccc(NC(=O)Nc2c(C)noc2-c2ccccc2)cc1
20,> 28.4,COc1ccc2c(c1)CC(=O)NC=C2
21,4.4,CCOC(=O)c1[nH]cnc1C(=O)Nc1cccc(OC)c1
22,> 52.1,COc1ccc(CNC(=O)C(=O)NC2CC(C)(C)NC(C)(C)C2)cc1
23,> 46.5,CC1CCCC(C)N1C(=O)COC(=O)c1ccc([N+](=O)[O-])o1 (stereo not given)
24,> 36.6,Nc1ccccc1C(=O)NCc1ccc(F)cc1
25,19,COc1ccc(C(=O)CC(=O)C(=O)Nc2cccc(F)c2)cc1
26,16.3,Cc1ccccc1C(=O)NC(=S)NC1CC1
27,18.6,Cc1cc(C(=O)NCCc2ccc(Cl)cc2)no1
